Measured values as given in article PMC6874179, “Development of Macrocycle Kinase Inhibitors for ALK2 Using Fibrodysplasia Ossificans Progressiva‐Derived Endothelial Cells” (JBMR Plus, 2019).

Key:
Test in all cases: Proqinase Kinase profiling
Assay type in all cases: biochemical
Settings in all cases: read-out: % inhibition at 100nM
EEF2K = molecular target: T1, EEF2K (Homo sapiens, UniProt O00418)
T1 construct: purchased DiscoverX

MAPKAPK3 = molecular target: T2, MAPKAPK3 (Homo sapiens, UniProt Q16644)
T2 construct: purchased DiscoverX

MAP3K11 = molecular target: T3, MAP3K11 (Homo sapiens, UniProt Q16584)
T3 construct: purchased DiscoverX

STK16 = molecular target: T4, STK16 (Homo sapiens, UniProt O75716)
T4 construct: purchased DiscoverX

CDK8_cyclinC = molecular target: T5, CDK8_cyclinC (Homo sapiens, UniProt P49336)
T5 construct: purchased DiscoverX

ABL2 = molecular target: T6, ABL2 (Homo sapiens, UniProt P42684)
T6 construct: purchased DiscoverX

NTRK3 = molecular target: T7, NTRK3 (Homo sapiens, UniProt Q16288)
T7 construct: purchased DiscoverX

PRKCE = molecular target: T8, PRKCE (Homo sapiens, UniProt Q02156)
T8 construct: purchased DiscoverX

STK3 = molecular target: T9, STK3 (Homo sapiens, UniProt Q13188)
T9 construct: purchased DiscoverX

FGFR1_V561M = molecular target: T10, FGFR1_V561M (Homo sapiens, UniProt P11362, V561M)
T10 construct: purchased DiscoverX

SGK3 = molecular target: T11, SGK3 (Homo sapiens, UniProt Q96BR1)
T11 construct: purchased DiscoverX

MAPK9 = molecular target: T12, MAPK9 (Homo sapiens, UniProt P45984)
T12 construct: purchased DiscoverX

CDC42BPA = molecular target: T13, CDC42BPA (Homo sapiens, UniProt Q5VT25)
T13 construct: purchased DiscoverX

CHEK1 = molecular target: T14, CHEK1 (Homo sapiens, UniProt O14757)
T14 construct: purchased DiscoverX

RPS6KA3 = molecular target: T15, RPS6KA3 (Homo sapiens, UniProt P51812)
T15 construct: purchased DiscoverX

MAP3K2 = molecular target: T16, MAP3K2 (Homo sapiens, UniProt Q9Y2U5)
T16 construct: purchased DiscoverX

GRK4 = molecular target: T17, GRK4 (Homo sapiens, UniProt P32298)
T17 construct: purchased DiscoverX

PDGFRA_D842V = molecular target: T18, PDGFRA_D842V (Homo sapiens, UniProt P16234, D842V)
T18 construct: purchased DiscoverX

TEK_Y897S = molecular target: T19, TEK_Y897S (Homo sapiens, UniProt Q02763, Y897S)
T19 construct: purchased DiscoverX

ACVRL1 = molecular target: T20, ACVRL1 (Homo sapiens, UniProt P37023)
T20 construct: purchased DiscoverX

IGF1R = molecular target: T21, IGF1R (Homo sapiens, UniProt P08069)
T21 construct: purchased DiscoverX

KIT_V559D = molecular target: T22, KIT_V559D (Homo sapiens, UniProt P10721, V559D)
T22 construct: purchased DiscoverX

KDR = molecular target: T23, KDR (Homo sapiens, UniProt P35968)
T23 construct: purchased DiscoverX

STK17A = molecular target: T24, STK17A (Homo sapiens, UniProt Q9UEE5)
T24 construct: purchased DiscoverX

ERBB2 = molecular target: T25, ERBB2 (Homo sapiens, UniProt P04626)
T25 construct: purchased DiscoverX

TTK = molecular target: T26, TTK (Homo sapiens, UniProt P33981)
T26 construct: purchased DiscoverX

VRK1 = molecular target: T27, VRK1 (Homo sapiens, UniProt Q99986)
T27 construct: purchased DiscoverX

MKNK2 = molecular target: T28, MKNK2 (Homo sapiens, UniProt Q9HBH9)
T28 construct: purchased DiscoverX

LYN = molecular target: T29, LYN (Homo sapiens, UniProt P07948)
T29 construct: purchased DiscoverX

FGFR1 = molecular target: T30, FGFR1 (Homo sapiens, UniProt P11362)
T30 construct: purchased DiscoverX

EGFR_G719S = molecular target: T31, EGFR_G719S (Homo sapiens, UniProt P00533, G719S)
T31 construct: purchased DiscoverX

MARK4 = molecular target: T32, MARK4 (Homo sapiens, UniProt Q96L34)
T32 construct: purchased DiscoverX

TEK_Y1108F = molecular target: T33, TEK_Y1108F (Homo sapiens, UniProt Q02763, Y1108F)
T33 construct: purchased DiscoverX

MET_Y1230A = molecular target: T34, MET_Y1230A (Homo sapiens, UniProt P08581, Y1230A)
T34 construct: purchased DiscoverX

DYRK4 = molecular target: T35, DYRK4 (Homo sapiens, UniProt Q9NR20)
T35 construct: purchased DiscoverX

PLK3 = molecular target: T36, PLK3 (Homo sapiens, UniProt Q9H4B4)
T36 construct: purchased DiscoverX

LTK = molecular target: T37, LTK (Homo sapiens, UniProt P29376)
T37 construct: purchased DiscoverX

PRKX = molecular target: T38, PRKX (Homo sapiens, UniProt P51817)
T38 construct: purchased DiscoverX

DMPK = molecular target: T39, DMPK (Homo sapiens, UniProt Q09013)
T39 construct: purchased DiscoverX

CLK1 = molecular target: T40, CLK1 (Homo sapiens, UniProt P49759)
T40 construct: purchased DiscoverX

NUAK1 = molecular target: T41, NUAK1 (Homo sapiens, UniProt O60285)
T41 construct: purchased DiscoverX

FYN = molecular target: T42, FYN (Homo sapiens, UniProt P06241)
T42 construct: purchased DiscoverX

PAK2 = molecular target: T43, PAK2 (Homo sapiens, UniProt Q13177)
T43 construct: purchased DiscoverX
T43 sequence (Q13177 whole entry): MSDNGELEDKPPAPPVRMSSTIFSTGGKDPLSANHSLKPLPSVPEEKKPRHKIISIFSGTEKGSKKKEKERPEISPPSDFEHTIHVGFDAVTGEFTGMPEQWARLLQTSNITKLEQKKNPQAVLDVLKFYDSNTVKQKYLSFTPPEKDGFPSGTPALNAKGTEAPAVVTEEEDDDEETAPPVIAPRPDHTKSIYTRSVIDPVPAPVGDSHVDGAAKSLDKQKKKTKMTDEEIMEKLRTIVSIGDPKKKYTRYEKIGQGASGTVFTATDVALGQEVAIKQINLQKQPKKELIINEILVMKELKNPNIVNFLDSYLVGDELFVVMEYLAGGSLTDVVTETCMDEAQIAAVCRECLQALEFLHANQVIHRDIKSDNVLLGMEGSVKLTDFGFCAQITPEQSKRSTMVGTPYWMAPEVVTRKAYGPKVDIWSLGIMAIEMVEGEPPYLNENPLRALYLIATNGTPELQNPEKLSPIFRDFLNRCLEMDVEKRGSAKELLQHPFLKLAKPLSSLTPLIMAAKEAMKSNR

T35 sequence (Q9NR20 whole entry): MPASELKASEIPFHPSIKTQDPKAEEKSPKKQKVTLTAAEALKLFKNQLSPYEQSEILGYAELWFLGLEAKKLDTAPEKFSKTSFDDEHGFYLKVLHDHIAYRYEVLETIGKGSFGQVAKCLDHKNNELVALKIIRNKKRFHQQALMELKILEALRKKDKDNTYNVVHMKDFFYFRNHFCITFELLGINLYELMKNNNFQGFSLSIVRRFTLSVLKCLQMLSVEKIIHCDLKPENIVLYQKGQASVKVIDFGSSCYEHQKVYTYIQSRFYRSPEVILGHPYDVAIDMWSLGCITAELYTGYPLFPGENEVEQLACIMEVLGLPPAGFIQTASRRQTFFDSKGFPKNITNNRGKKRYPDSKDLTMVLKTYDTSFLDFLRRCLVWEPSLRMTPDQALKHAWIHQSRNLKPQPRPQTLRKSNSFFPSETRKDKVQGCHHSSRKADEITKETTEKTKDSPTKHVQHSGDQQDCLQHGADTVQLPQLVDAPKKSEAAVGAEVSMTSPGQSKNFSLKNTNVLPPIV
T30 sequence (P11362 22-822): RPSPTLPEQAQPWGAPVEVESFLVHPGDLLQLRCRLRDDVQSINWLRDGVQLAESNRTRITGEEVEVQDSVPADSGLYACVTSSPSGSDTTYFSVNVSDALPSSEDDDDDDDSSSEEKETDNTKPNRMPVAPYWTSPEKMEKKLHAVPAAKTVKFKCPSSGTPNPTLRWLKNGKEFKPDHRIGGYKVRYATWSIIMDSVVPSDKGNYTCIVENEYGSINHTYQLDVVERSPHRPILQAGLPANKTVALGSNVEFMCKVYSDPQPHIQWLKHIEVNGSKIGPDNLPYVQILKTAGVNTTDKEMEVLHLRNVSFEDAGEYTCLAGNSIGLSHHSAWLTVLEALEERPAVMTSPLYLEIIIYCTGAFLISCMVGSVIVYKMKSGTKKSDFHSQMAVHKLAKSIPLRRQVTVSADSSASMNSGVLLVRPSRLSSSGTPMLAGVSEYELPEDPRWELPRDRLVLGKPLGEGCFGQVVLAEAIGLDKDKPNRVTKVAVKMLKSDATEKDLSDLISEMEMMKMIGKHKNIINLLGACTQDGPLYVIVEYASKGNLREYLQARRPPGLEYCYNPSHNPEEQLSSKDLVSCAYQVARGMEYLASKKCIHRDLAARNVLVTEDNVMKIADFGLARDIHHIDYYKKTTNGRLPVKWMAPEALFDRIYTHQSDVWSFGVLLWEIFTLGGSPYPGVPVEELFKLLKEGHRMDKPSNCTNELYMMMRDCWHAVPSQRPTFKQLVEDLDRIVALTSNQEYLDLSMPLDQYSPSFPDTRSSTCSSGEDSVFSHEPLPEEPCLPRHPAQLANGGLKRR
T17 sequence (P32298 whole entry): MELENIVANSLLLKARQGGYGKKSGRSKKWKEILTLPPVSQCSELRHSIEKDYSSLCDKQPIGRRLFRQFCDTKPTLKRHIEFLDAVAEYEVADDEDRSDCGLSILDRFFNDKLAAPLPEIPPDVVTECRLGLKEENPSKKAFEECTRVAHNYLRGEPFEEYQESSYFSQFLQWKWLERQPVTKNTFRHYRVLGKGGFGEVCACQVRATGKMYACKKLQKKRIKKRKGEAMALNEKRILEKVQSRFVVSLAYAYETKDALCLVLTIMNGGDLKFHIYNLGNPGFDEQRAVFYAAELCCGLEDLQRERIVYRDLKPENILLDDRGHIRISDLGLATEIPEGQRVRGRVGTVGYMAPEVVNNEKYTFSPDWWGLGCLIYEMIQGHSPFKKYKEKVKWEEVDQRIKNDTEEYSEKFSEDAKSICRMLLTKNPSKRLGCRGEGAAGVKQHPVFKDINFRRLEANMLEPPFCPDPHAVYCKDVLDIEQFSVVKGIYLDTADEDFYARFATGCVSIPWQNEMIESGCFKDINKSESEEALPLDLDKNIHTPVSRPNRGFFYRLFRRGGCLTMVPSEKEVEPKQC
T14 sequence (O14757 whole entry): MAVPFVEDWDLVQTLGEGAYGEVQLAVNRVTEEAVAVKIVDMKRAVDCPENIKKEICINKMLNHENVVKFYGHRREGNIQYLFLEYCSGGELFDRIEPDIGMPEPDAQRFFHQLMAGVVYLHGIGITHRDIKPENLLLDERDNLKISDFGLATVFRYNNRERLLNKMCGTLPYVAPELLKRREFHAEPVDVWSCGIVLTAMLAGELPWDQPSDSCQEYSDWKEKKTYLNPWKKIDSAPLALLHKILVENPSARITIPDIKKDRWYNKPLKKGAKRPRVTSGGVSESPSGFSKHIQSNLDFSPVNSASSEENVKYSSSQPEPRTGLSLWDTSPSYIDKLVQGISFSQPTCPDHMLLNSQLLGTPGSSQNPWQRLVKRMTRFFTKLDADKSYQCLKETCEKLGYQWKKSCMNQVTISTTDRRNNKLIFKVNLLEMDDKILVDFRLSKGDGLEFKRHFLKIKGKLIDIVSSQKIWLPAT
T40 sequence (P49759 whole entry): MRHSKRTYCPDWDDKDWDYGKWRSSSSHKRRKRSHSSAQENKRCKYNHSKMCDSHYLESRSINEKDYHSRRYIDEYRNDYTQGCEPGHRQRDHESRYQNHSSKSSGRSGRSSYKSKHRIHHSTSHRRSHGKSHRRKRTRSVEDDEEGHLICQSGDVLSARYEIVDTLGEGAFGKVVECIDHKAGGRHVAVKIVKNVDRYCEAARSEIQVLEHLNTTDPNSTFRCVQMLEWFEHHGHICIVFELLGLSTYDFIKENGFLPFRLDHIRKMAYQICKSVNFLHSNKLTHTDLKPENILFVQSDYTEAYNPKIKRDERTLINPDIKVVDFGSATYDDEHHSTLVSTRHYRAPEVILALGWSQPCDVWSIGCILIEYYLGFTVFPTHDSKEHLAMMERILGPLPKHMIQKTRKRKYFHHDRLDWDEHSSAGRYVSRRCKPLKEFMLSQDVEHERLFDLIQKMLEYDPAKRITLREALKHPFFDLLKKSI
T39 sequence (Q09013 whole entry): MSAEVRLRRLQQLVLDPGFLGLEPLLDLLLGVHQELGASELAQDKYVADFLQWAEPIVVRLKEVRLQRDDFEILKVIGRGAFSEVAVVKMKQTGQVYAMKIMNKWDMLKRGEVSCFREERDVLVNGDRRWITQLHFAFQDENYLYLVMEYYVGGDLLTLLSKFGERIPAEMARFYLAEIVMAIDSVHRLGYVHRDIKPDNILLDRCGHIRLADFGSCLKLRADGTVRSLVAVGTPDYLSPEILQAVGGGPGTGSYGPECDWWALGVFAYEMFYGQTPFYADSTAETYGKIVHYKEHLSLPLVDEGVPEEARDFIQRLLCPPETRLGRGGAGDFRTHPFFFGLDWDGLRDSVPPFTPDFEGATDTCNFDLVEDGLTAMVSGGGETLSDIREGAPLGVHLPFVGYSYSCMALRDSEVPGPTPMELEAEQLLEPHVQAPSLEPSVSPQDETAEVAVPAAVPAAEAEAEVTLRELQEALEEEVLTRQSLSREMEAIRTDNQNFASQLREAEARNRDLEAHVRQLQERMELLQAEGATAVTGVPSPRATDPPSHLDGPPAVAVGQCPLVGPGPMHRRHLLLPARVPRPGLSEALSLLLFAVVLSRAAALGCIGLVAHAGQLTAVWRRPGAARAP
T10 sequence (P11362 22-822 V561M): as the sequence (P11362 22-822) above, with V540M counted along it
T20 sequence (P37023 22-503): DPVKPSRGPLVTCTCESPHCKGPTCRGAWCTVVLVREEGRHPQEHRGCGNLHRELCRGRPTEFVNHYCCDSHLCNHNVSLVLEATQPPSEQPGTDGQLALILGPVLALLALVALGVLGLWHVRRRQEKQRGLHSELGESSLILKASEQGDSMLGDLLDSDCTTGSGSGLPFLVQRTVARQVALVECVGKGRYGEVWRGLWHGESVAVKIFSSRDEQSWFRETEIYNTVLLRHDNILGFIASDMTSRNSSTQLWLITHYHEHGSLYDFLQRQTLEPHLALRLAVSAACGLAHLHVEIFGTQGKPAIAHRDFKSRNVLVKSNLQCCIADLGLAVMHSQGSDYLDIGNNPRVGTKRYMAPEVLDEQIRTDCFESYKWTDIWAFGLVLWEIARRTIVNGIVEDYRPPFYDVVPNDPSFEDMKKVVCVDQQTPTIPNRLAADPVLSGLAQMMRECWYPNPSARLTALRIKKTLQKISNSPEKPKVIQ
T27 sequence (Q99986 whole entry): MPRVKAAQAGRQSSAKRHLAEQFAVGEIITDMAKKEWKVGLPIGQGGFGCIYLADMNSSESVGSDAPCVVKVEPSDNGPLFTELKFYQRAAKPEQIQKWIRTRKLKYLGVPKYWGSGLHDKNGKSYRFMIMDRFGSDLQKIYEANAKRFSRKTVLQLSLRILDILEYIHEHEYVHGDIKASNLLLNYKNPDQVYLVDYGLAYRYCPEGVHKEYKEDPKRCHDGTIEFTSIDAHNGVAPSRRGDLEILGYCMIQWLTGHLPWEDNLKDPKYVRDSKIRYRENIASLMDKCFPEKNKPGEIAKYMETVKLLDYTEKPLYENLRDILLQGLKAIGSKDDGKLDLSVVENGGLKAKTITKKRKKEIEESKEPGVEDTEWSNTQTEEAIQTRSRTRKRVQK

Clc1cc2cc(c1)-c1cnn3ccc(nc13)NCCOCCO2 [OD36]
inhibition at 0.1 µM (EEF2K): -9%
inhibition at 0.1 µM (MAPKAPK3): -1%
inhibition at 0.1 µM (MAP3K11): 30%
inhibition at 0.1 µM (STK16): 12%
inhibition at 0.1 µM (CDK8_cyclinC): 57%
inhibition at 0.1 µM (ABL2): 3%
inhibition at 0.1 µM (NTRK3): 17%
inhibition at 0.1 µM (PRKCE): -1%
inhibition at 0.1 µM (STK3): 12%
inhibition at 0.1 µM (FGFR1_V561M): 9%
inhibition at 0.1 µM (SGK3): 7%
inhibition at 0.1 µM (MAPK9): 12%
inhibition at 0.1 µM (CDC42BPA): 15%
inhibition at 0.1 µM (CHEK1): 11%
inhibition at 0.1 µM (RPS6KA3): 11%
inhibition at 0.1 µM (MAP3K2): 7%
inhibition at 0.1 µM (GRK4): 16%
inhibition at 0.1 µM (PDGFRA_D842V): 47%
inhibition at 0.1 µM (TEK_Y897S): 12%
inhibition at 0.1 µM (ACVRL1): 88%
inhibition at 0.1 µM (IGF1R): 3%
inhibition at 0.1 µM (KIT_V559D): 15%
inhibition at 0.1 µM (KDR): 32%
inhibition at 0.1 µM (STK17A): 23%
inhibition at 0.1 µM (ERBB2): 0%
inhibition at 0.1 µM (TTK): 10%
inhibition at 0.1 µM (VRK1): -4%
inhibition at 0.1 µM (MKNK2): 28%
inhibition at 0.1 µM (LYN): 43%
inhibition at 0.1 µM (FGFR1): 14%
inhibition at 0.1 µM (EGFR_G719S): 10%
inhibition at 0.1 µM (MARK4): 13%
inhibition at 0.1 µM (TEK_Y1108F): -27%
inhibition at 0.1 µM (MET_Y1230A): -3%
inhibition at 0.1 µM (DYRK4): 14%
inhibition at 0.1 µM (PLK3): -4%
inhibition at 0.1 µM (LTK): 6%
inhibition at 0.1 µM (PRKX): 17%
inhibition at 0.1 µM (DMPK): 2%
inhibition at 0.1 µM (CLK1): 7%
inhibition at 0.1 µM (NUAK1): 6%
inhibition at 0.1 µM (FYN): 59%
inhibition at 0.1 µM (PAK2): -5%

Cc1cc2cc(c1)-c1cnn3ccc(nc13)NCCNC(=O)CCN(C)C2 [OD52]
inhibition at 0.1 µM (EEF2K): -13%
inhibition at 0.1 µM (MAPKAPK3): -25%
inhibition at 0.1 µM (MAP3K11): 14%
inhibition at 0.1 µM (STK16): 9%
inhibition at 0.1 µM (CDK8_cyclinC): 44%
inhibition at 0.1 µM (ABL2): -23%
inhibition at 0.1 µM (NTRK3): 24%
inhibition at 0.1 µM (PRKCE): -7%
inhibition at 0.1 µM (STK3): 5%
inhibition at 0.1 µM (FGFR1_V561M): -26%
inhibition at 0.1 µM (SGK3): 0%
inhibition at 0.1 µM (MAPK9): -5%
inhibition at 0.1 µM (CDC42BPA): -4%
inhibition at 0.1 µM (CHEK1): -8%
inhibition at 0.1 µM (RPS6KA3): -12%
inhibition at 0.1 µM (MAP3K2): 14%
inhibition at 0.1 µM (GRK4): 16%
inhibition at 0.1 µM (PDGFRA_D842V): 17%
inhibition at 0.1 µM (TEK_Y897S): -31%
inhibition at 0.1 µM (ACVRL1): 89%
inhibition at 0.1 µM (IGF1R): -25%
inhibition at 0.1 µM (KIT_V559D): -6%
inhibition at 0.1 µM (KDR): -14%
inhibition at 0.1 µM (STK17A): 4%
inhibition at 0.1 µM (ERBB2): -44%
inhibition at 0.1 µM (TTK): -9%
inhibition at 0.1 µM (VRK1): -15%
inhibition at 0.1 µM (MKNK2): 9%
inhibition at 0.1 µM (LYN): -14%
inhibition at 0.1 µM (FGFR1): 5%
inhibition at 0.1 µM (EGFR_G719S): -9%
inhibition at 0.1 µM (MARK4): -4%
inhibition at 0.1 µM (TEK_Y1108F): -21%
inhibition at 0.1 µM (MET_Y1230A): -1%
inhibition at 0.1 µM (DYRK4): 4%
inhibition at 0.1 µM (PLK3): -8%
inhibition at 0.1 µM (LTK): -8%
inhibition at 0.1 µM (PRKX): 34%
inhibition at 0.1 µM (DMPK): -5%
inhibition at 0.1 µM (CLK1): 6%
inhibition at 0.1 µM (NUAK1): -4%
inhibition at 0.1 µM (FYN): 6%
inhibition at 0.1 µM (PAK2): -7%
